# System: MCF7
# Test: Cytotoxicity against human MCF7 cells assessed as inhibition of cell growth at 10 uM after 96 hrs by Cell Titer 96 Aqueous One solution Cell proliferation assay relative to control
# Format: functional
# Settings: MCF7, 96 h, read-out: GI
structure (smiles),measurement,value
C[C@]12CC[C@@H]3c4ccc(O)cc4CC[C@H]3[C@@H]1CC[C@@]2(O)Cc1ccccc1,inhibition of growth at 10 µM,51%
